# Measurements taken from patent US8168177B2, “Method of regulating mammalian target-of-rapamycin activity by interaction between phospholipase D and Rheb” (Postech Academy-Industry Foundation, priority 2006, dated 2012).
# Assays:
# [1] = tested on: S6K1 phosphorylation; assay: Leucine-induced S6K1 phosphorylation (Western blot); assay type: cell-based
# Method: COS7 cells (ATCC, CRL-1651) were maintained in a 5% CO2 humidified atmosphere at 37° C. and fed DMEM supplemented with 10% bovine calf serum (HyClone). HEK293 cells (ATCC: CRL-1573) were fed DMEM supplemented with 10% fetal bovine serum (HyClone). Cells grown on tissue culture dishes were transiently transfected using LipofectAMINE, as described in “Park, J. B. et al. Cardiac phospholipase D2 localizes to sarcolemmal membranes and is inhibited by alpha-actinin in an ADP-ribosylation factor-reversible manner. J. Biol. Chem. 275, 21295-21301 (2000)” and “Lee, S. et al. Actin directly interacts with phospholipase D, inhibiting its activity. J. Biol. Chem. 276, 28252-28260 (2001)”, which are hereby incorporated by reference. Cells were allowed to express the recombinant proteins for 24 hr after transfection and then deprived of serum for additional 24 hr. The cells were then subjected to leucine deprivation, co-immunoprecipitation, or GST pull-down analysis. Leucine deprivation was performed as previously described 10 with minor modification. Briefly, cells were deprived of serum first for 24 hrs and then subjected to leucine deprivation in leucine-free RPMI 1640 medium. […]
# [2] = tested on: interaction between mTOR and Rheb / mTOR signaling; assay: IP analysis of HA-RhebQ64L transfected cells treated with 1-butanol, t-butanol, PA, rapamycin; assay type: cell-based
# Method: (§1) After harvesting COS7 cells, total extracts were prepared by brief sonication in ice-cold lysis buffer (40 mM HEPES pH7.5, 120 mM NaCl, 1 mM EDTA, 10 mM pyrophosphate, 10 mM glycerophosphate, 50 mM NaF, 1.5 mM Na3VO4, 0.5% CHAPS, 1 mM PMSF, protease inhibitor cocktails). Clarified extracts were mixed with 2 μg of the respective antibodies. Then protein A-Sepharose beads were added to isolate the antibody complex. After four washings with lysis buffer, the final immunoprecipitates were washed once with wash buffer (50 mM HEPES pH7.5, 150 mM NaCl), and then subjected to SDS-PAGE using Hyperfilm (Amersham Pharmacia Biotech), nitrocellulose membranes (Watmann), Power supply (Amersham Pharmacia Biotech), Electrophoretic Transfer unit (Hoefer Scientific Instruments), and ECL™ (Amersham Pharmacia Biotech).
# This example examined the speculation that PA could increase Rheb/mTOR binding and activate mTOR through PA-dependent conformational change of mTOR.
# [3] = molecular target: T1, mTOR complex (Homo sapiens, UniProt P42345); assay: In vitro binding of purified GST-Rheb to mTOR/raptor/PLD2 immunoprecipitate; conditions: PA 10 μM, GST-Rheb 40 nM, in the presence of GTPγS 100 μM (FIG. 13)
# T1 construct: expressed in transfected cells; host or cells: The mTOR/raptor/PLD2 complex came from transfected mammalian cells; GST-Rheb was expressed in E. coli
# Method: After incubation at 4° C. for 2 hr, the beads were washed and then subjected to SDS-PAGE. E. coli and COS7 cells were lysed with the lysis buffer used for the co-immunoprecipitation. Hexa-histidine (His6)-tagged PLD2 was purified from detergent extracts of baculovirus-infected Sf9 cells (Invitrogen) by chelating Sepharose affinity column chromatography, as previously described in Lee, S. et al. Actin directly interacts with phospholipase D, inhibiting its activity. J. Biol. Chem. 276, 28252-28260 (2001), which is hereby incorporated by reference. […] In vitro binding analysis was done in ice-cold lysis buffer (as used for the co-immunoprecipitation but including 10% glycerol).
# HA-mTOR, myc-raptor, and PLD2 were transfected and resulting lysates were immunoprecipitated with anti-HA antibody.
# [4] = tested on: mTOR pathway; conditions: cited from earlier work
# [5] = molecular target: T2, PLD2 (Homo sapiens, UniProt O14939); assay: In vivo PLD assay (PBt formation) in PLD2wt transfected cells; assay type: cell-based; conditions: leucine-free vs leucine-added media, 0.4% 1-butanol (FIG. 16)
# T2 construct: expressed in transfected cells
# Method: In vivo PLD activity was assayed by measuring the formation of phosphatidyl-butanol as described in “Lee, S. et al. Actin directly interacts with phospholipase D, inhibiting its activity. J. Biol. Chem. 276, 28252-28260 (2001)” and “Ha, S. H., Kim, D. H., Kim, I. S., Kim, J. H., Lee, M. N., Lee, H. J., Kim, J. H., Jang, S. K., Suh, P. G., Ryu, S. H. PLD2 forms a functional complex with mTOR/raptor to transduce mitogenic signals. Cell. Signal. 18 (2006) 2283-2291”, which are hereby incorporated by reference.
# In brief, cells were loaded with [^3H]myristic acid (2 μCi/ml) for 8 hr and then washed twice with DMEM. Labeled cells were incubated with 0.4% butanol for 10 min to measure basal PLD activity. Total lipids were extracted with 1.2 ml of methanol:1M NaCl:chloroform (1:1:1 by volume) and then separated by thin-layer chromatography on silica gel plates. The amount of [^3H]phosphatidyl-butanol formed was expressed as a percentage of total [^3H]lipid to account for cell labeling efficiency differences.
# Until now, the function of PLD2 in nutrient signaling has not been proposed. To this end, the importance of PLD2 in nutrient signaling was tested. […] Based on the result, PLD2 activity in response to nutrient levels was checked. PLD2^wt was transfected and allowed to express for 24 hr.
# [6] = tested on: interaction between PLD2 and mTOR; assay: Co-IP of endogenous PLD2 with mTOR (anti-mTOR antibody); assay type: cell-based; conditions: rapamycin: mTOR inhibition; leucine: leucine-deprived COS7 and HEK293 cells (FIG. 17)
# Method: as §1
compound,measurement,setting,value
CCCCO [1-butanol],stimulatory effect of leucine on S6K1,[1]; 1-butanol treatment,significantly reduced
same,interaction between mTOR and Rheb,"[2]; 1-butanol 0.4%, HA-RhebQ64L cells serum deprived 24 hr (FIG. 12)",attenuated
"PLD2 siRNA: 21-nucleotide siRNA duplex (SEQ ID NO: 9/10) corresponding to human PLD2 coding nucleotides 703-723 (chain 1 AAGAGGUGGCUGGUGGUGAAG; chain 2 CUUCACCACCAGCCACCUCUU; listed as RNA, chemistry not given here)",effect of leucine on S6K1 phosphorylation,"[1]; leucine deprivation 45 min, then leucine 15 min (0-100 μM FIG. 20; 100 μM FIG. 21)",completely downregulated
"CCCCCC(=O)OC[C@H](COP(=O)(O)O)OC(=O)CCCCC [PA, C-6 phosphatidic acid]",GST-Rheb binding to mTOR complex,[3],increased
same,rescue of mTOR activity by PA,[4]; PLD1 expression lowered,could rescue
same,activation of mTOR pathway by PA,[4]; PLD2 expression lowered,could no longer activate
same,"Rheb activation of mTOR signaling, rescue from 1-butanol-treated cells",[2]; C-6 PA 100 uM (FIG. 12),essentially required
CC(C)C[C@H](N)C(=O)O [leucine],PLD2 activity (PBt formation),[5],reversibly regulated
same,interaction between PLD2 and mTOR,[6],increased
